According to publication PMC12534982 (Journal of Experimental & Clinical Cancer Research : CR, 2025):

Experiments:
[1] = tested on: colorectal cancer cell lines; assay: DNA fiber assays; format: cell-based, human
Method: Cancer cells were pulse-labeled with 20 µM iododeoxyuridine (IdU) in the dark at 37 °C for 20 min. Subsequently, the cells were washed twice with PBS and then pulse-labeled with 200 µM chlorodeoxyuridine (CldU) in the presence or absence of NK-A 17E-233I (25 µM) in the dark at 37 °C for 1 h. To assess fork restart in cancer cells following treatment, cells were pulse-labeled with 20 µM IdU for 10 min, after which NK-A 17E-233I (25 µM) was either added or no treatment was administered, followed by an additional 1 h of incubation. The cells were then washed twice with PBS and pulse-labeled with 200 µM CldU for 30 min. Following the labeling procedure, cells were washed twice with PBS, scrapped into PBS containing 0.1% Bovine Serum Albumin (BSA), pelleted, and resuspended in PBS with 0.1% BSA at a final concentration of 1.5 × 10^3 cells/µL. A volume of 2.5 µL of the cell suspension was spotted onto a positively charged slide and lysed with 7.5 µL of a spreading buffer (200 mM Tris–HCl, pH 7.5; 50 mM EDTA; 0.5% SDS) at room temperature for 8 min. The slides were then tilted at 45 ° to facilitate DNA spreading. After air-drying, the slides were fixed with ice-cold methanol/acetic acid (3:1) for 5 min, air-dried again, and stored at 4 °C.
The slides were rehydrated with PBS, denatured with 2.5 M HCl for 1 h, washed twice with PBS, and blocked with a blocking buffer (3% BSA; 0.1% Triton X-100 in PBS) for 40 min. Subsequently, the slides were incubated with a primary antibody mixture, including mouse anti-5-Bromo-2'-Deoxyuridine (anti-BrdU) recognizing IdU (#347580; Becton Dickinson, dilution 1:250) and rat anti-BrdU recognizing CldU (#6326; Abcam, dilution 1:250), diluted in a blocking buffer within a dark humid chamber at room temperature for 2.5 h.
For silencing, siNT (non-target, D-001810–10-20 On-TARGET plus Non-targeting pool, Dharmacon) (Horizon Discovery, Waterbeach, UK) and siPOLD2 (Smart pool, ON-TARGETplus Human POLD2 (5425) siRNA oligos directed against human POLD2), were used to transfect cells using RNAiMax Lipofectamine Reagent Mix (Life Technologies) according to the manufacturer’s protocol. 48 h post-transfection, the cells were harvested to evaluate the efficiency of gene silencing, which was estimated to be approximately 90% based on western blot analysis, for further experimental applications.
Afterwards, the slides were washed three times with PBS for 5 min each and incubated with secondary antibodies, anti-mouse Alexa Fluor 594 and anti-rat Alexa Fluor 488 (#A11005 and #A11006, respectively; Invitrogen, dilution 1:250), in a blocking buffer at room temperature in a dark humid chamber for 1 h. After three additional washes with PBS and air-drying, the slides were mounted with ProLong Gold Antifade Reagent (#P36930; Invitrogen) and stored at 4 °C until imaging. Images were acquired using an AF6000 Leica Fluorescence microscope equipped with an HCX PL APO 63x (NA = 1.4) oil objective. ImageJ/Fiji software was utilized to measure the fibers with the segmented line tool.

[2] = tested on: basal forebrain cholinergic neurons (BFCNs); assay: Cytoskeleton immunostaining; format: cell-based, mouse; conditions: 24 h
Method: To evaluate DNA damage, cancer cells (1 × 10^3) were cultured in 8-well collagen IV Ibidi chamber slides (#80,822; Ibidi) for 24 h, treated with DMSO or NK-A 17E-233I (25 µM) for an additional 24 h, and then fixed. For assessing the integrity of the cytoskeleton, neuronal cells (BFCNs) were cultured on coverslips for 14 days, while non-neuronal cells (cancer cells) were cultured on coverslips for 24 h. Both neuronal and non-neuronal cells were treated with DMSO or NK-A 17E-233I (1 µM) for 24 h, fixed, and permeabilized as described in [21]. Samples were then blocked (non-neuronal cells with 3% BSA in PBS-T and neuronal cells with 10% BSA in PBS-T) and incubated overnight at 4 °C with the appropriate primary antibodies. Following this, samples were washed with PBS-T and incubated for 1 h with Alexa-488 Phalloidin (#A12379; Invitrogen-ThermoFisher Scientific) to visualize F-actin, along with the corresponding secondary antibodies. The cells were mounted with Ibidi mounting medium containing 4',6-diamidino-2-phenylindole (DAPI, #50011; Ibidi) prior to imaging.
The primary antibodies utilized were: anti–α-tubulin at a 1:1000 dilution (#SC-32293; Santa Cruz), anti–γ-H2AX and anti-Rad51 at 1:500 dilution (#ab22551 and #ab133534, respectively; […]), and anti–microtubule-associated protein 2 (MAP2) at a 1:1000 dilution (#OSM00149W; ThermoFisher Scientific). […]

colorectal cancer cells [3] = assay: Clonogenic assay; format: cell-based, human
Method: Cancer cells (4 × 10^3) were cultured in 6-well plates in triplicate and treated with DMSO or NK-A 17E-233I (25 µM) for two weeks. Colonies were subsequently stained with a solution containing 0.5% crystal violet (#B21932.14; ThermoScientific) and 20% ethanol, followed by multiple washes with water. Plates were allowed to air dry overnight and were subsequently scanned using an Epson Perfection V850 Pro scanner (Kamera Express, Spain). The area of the wells occupied by cells was quantified utilizing the ImageJ plugin ColonyArea.

colorectal cancer cells [4] = assay: Annexin V-FITC/PI double staining; format: cell-based, human; conditions: 25 µM
Method: Cells were harvested as described in the flow cytometry-based cell cycle analysis section. The supernatant was discarded, and the cells were resuspended in 100 μL of cold Annexin buffer (pH 7.4) composed of 18 mL distilled water, 5.5 mg CaCl2, 164 mg NaCl, and 2 mL of 100 mM HEPES. A 1:1 mixture of Annexin V (#130–097-928; Miltenyi Biotec) and propidium iodide (PI, 1 mg/mL) was added to all tubes and incubated in the dark at room temperature for 20 min. Annexin buffer was added, and the samples were analyzed using a CytoFLEX within 1 h. CytExpert and FlowJo software were utilized for data acquisition and analysis.

COc1cc(C)c(Oc2cc(C)cc(O)c2O)c(O)c1 [NK-A 17E-233I]
speed of replication forks (CldU tracks) ([1]; 25 µM, 1 h): significantly reduced
rescue of replication fork speed by physiological uridine ([1]; 25 µM, uridine 10 µM): did not demonstrate any discernible rescue
rescue of DNA-damaging effects by excess uridine ([1]; 25 µM, uridine 200 µM): rescued the DNA-damaging effects
replication fork progression after washout (fork restart) ([1]; LS174T, 25 µM, 1 h then washout): continued to demonstrate a diminished progression rate
speed of replication forks (CldU tract length) ([1]; SW620, 25 µM, 1 h): significantly diminished
dendritic and cytoskeletal structures (F-actin, MAP2) [2]: retained their dendritic and cytoskeletal structures
ability to form colonies (colorectal cancer cells [3]; 25 µM, two weeks): significantly diminished
combination with the ATR inhibitor VE-821 (colorectal cancer cells [3]; LS174T: Tx 4 µM, VE-821 0.5 µM, 14 days, HCT116): synergistic activity
late-apoptotic cells (Annexin V-FITC) (colorectal cancer cells [4]; 48 h): significantly increased
apoptosis with pan-caspase inhibitor Z-VAD-FMK (colorectal cancer cells [4]; Z-VAD-FMK 10 µM, 24 h): abolished its activity
